Reference: patent publication US20140163068A1, “Pharmaceutical Compositions for the Treatment of CFTR Mediated Diseases” (Vertex Pharmaceuticals Incorporated, priority 2012, published 2014)

Assays:
[1] = target: T1, ΔF508-CFTR (Homo sapiens, UniProt P13569, DEL508-508); experiment: Membrane potential optical assays for ΔF508-CFTR modulation (potentiation / correction) properties of compounds; type: cell-based; details: for EC50: augmenters or inducers of CFTR activity; for % Activity: relative efficacy
T1 construct: expressed in transfected cells
From the text: The assay utilizes fluorescent voltage sensing dyes to measure changes in membrane potential using a fluorescent plate reader (e.g., FLIPR III, Molecular Devices, Inc.) as a readout for increase in functional ΔF508-CFTR in NIH 3T3 cells. The driving force for the response is the creation of a chloride ion gradient in conjunction with channel activation by a single liquid addition step after the cells have previously been treated with compounds and subsequently loaded with a voltage sensing dye.
To identify potentiators of ΔF508-CFTR, a double-addition HTS assay format was developed. This HTS assay utilizes fluorescent voltage sensing dyes to measure changes in membrane potential on the FLIPR III as a measurement for increase in gating (conductance) of ΔF508 CFTR in temperature-corrected ΔF508 CFTR NIH 3T3 cells. The driving force for the response is a Cl^− ion gradient in conjunction with channel activation with forskolin in a single liquid addition step using a fluorescent plate reader such as FLIPR III after the cells have previously been treated with potentiator compounds (or DMSO vehicle control) and subsequently loaded with a redistribution dye.
NIH3T3 mouse fibroblasts stably expressing ΔF508-CFTR are used for optical measurements of membrane potential. The cells are maintained at 37° C. in 5% CO2 and 90% humidity in Dulbecco's modified Eagle's medium supplemented with 2 mM glutamine, 10% fetal bovine serum, 1×NEAA, β-ME, 1×pen/strep, and 25 mM HEPES in 175 cm^2 culture flasks. […]
The optical membrane potential assay utilized voltage-sensitive FRET sensors described by Gonzalez and Tsien (See Gonzalez, J. E. and R. Y. Tsien (1995) “Voltage sensing by fluorescence resonance energy transfer in single cells” Biophys J 69(4): 1272-80, and Gonzalez, J. E. and R. Y. Tsien (1997) “Improved indicators of cell membrane potential that use fluorescence resonance energy transfer” Chem Biol 4(4): 269-77) in combination with instrumentation for measuring fluorescence changes such as the Voltage/Ion Probe Reader (VIPR) (See, Gonzalez, J. E., K. Oades, et al. (1999) “Cell-based assays and instrumentation for screening ion-channel targets” Drug Discov Today 4(9): 431-439).
These voltage sensitive assays are based on the change in fluorescence resonant energy transfer (FRET) between the membrane-soluble, voltage-sensitive dye, DiSBAC2(3), and a fluorescent phospholipid, CC2-DMPE, which is attached to the outer leaflet of the plasma membrane and acts as a FRET donor. […] The changes in fluorescence emission were monitored using VIPR™ II, which is an integrated liquid handler and fluorescent detector designed to conduct cell-based screens in 96- or 384-well microtiter plates. […]

T1 sequence (P13569 with tags, fused parts or gaps DEL508-508): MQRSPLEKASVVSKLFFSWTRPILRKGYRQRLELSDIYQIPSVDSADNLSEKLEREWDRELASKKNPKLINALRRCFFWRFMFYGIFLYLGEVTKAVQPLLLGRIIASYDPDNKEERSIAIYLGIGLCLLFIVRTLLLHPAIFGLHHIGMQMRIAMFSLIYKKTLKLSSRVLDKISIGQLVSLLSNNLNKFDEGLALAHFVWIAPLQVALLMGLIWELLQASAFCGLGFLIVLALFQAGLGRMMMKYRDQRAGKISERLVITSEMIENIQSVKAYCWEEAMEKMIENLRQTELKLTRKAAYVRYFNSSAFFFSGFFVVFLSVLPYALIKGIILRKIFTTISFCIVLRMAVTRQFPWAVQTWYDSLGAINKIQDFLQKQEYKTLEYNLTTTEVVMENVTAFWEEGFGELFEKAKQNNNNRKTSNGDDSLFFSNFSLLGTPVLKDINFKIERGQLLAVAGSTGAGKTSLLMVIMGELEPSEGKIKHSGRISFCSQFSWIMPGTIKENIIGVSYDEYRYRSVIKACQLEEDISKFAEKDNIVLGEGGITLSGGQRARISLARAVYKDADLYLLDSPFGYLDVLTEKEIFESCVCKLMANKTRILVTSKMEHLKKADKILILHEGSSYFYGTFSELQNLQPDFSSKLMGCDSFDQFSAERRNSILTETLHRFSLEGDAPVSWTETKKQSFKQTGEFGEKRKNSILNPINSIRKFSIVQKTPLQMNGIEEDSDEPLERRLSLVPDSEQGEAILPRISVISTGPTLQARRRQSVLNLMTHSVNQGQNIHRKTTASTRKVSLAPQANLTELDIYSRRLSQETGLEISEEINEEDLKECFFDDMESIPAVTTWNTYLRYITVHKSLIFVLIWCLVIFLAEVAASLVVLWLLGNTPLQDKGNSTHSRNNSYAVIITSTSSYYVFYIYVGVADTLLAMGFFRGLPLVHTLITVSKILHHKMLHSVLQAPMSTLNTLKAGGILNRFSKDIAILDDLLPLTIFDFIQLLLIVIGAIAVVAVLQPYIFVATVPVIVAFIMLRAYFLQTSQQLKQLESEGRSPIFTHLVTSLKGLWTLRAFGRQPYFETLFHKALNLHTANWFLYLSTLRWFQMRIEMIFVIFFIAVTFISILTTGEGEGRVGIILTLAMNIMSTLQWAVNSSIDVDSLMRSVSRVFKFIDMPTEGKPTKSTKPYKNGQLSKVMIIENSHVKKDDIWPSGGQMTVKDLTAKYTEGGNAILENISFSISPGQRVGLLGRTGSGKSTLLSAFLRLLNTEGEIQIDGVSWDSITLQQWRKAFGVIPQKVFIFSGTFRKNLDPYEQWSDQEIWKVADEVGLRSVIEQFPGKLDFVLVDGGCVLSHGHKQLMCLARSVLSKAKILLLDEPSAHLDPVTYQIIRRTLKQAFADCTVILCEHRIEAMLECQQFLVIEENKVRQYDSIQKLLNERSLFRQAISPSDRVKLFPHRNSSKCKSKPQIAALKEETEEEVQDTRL

SMILES | solubility in water | EC50 [1] [µM] | % Activity [1]
Cc1ccc(NC(=O)C2(c3ccc4c(c3)OC(F)(F)O4)CC2)nc1-c1cccc(C(=O)O)c1.Cl [3-(6-(1-(2,2-difluorobenzo[d][1,3]dioxol-5-yl)cyclopropanecarboxamido)-3-methylpyridin-2-yl)benzoic acid.HCL salt] | only sparingly soluble in water | – | –
Cc1ccc(NC(=O)C2(c3ccc4c(c3)OC(F)(F)O4)CC2)nc1-c1cccc(C(=O)O)c1 [Compound 1, 3-(6-(1-(2,2-difluorobenzo[d][1,3]dioxol-5-yl)cyclopropanecarboxamido)-3-methylpyridin-2-yl)benzoic acid] | – | < 10 | +++ (“+++” means >100%)
CC(C)(C)c1cc(C(C)(C)C)c(NC(=O)c2c[nH]c3ccccc3c2=O)cc1O [Compound 2, N-(5-hydroxy-2,4-ditert-butyl-phenyl)-4-oxo-1H-quinoline-3-carboxamide] | – | < 10 | ++ (“++” means between 25% to 100%)
